Consider nine substances from patent US20220411847A1, “GLUCOSE/GALACTOSE BIOSENSORS AND METHODS OF USING SAME” (Duke University, priority 2015, published 2022).

Data set [1] in a line: Isothermal glucose titrations from fluorescent landscapes (Roche LightCycler). The class given is binding. As to the method:
(§1) The titration series were mixed with GGBP183C⋅acrylodan or BD_SM4⋅acrylodan conjugates in 384-well microtiter plates. The temperature dependence of the titrations was measured in a real-time PCR machine (Roche LightCycler 480) by determining the ratio of fluorescence emission intensities at 488, 510, and 580 nm (excitation at 440 nm) as a function of temperature (290-370K). Temperatures were advanced in 1K steps. At each temperature data was collected for at 1-second intervals for 60 seconds at which point the signal had relaxed to a steady value associated with the new temperature. Collection times were adjusted to minimize photobleaching (which was not detectable under these experimental conditions). Data reduction software was developed to convert these observations into time-independent datasets that record fluorescence as a function of temperature for each well and associate wells with their concentration of titrant and additive. Management tools were developed to maintain a database of titrations and their analyses.
The response of acrylodan to glucose binding was separated from the effects of thermal denaturation by extracting binding isotherms within the temperature range where the apo-protein remains >99% folded (T<320 K; FIG. 7). Within this temperature range, binding isotherms were constructed by extracting fluorescence values across different wells, each containing different glucose concentrations, at a given temperature, and fit individually with high accuracy to isotherms (FIG. 8):
using linear baselines which vary individually in accordance with the tilt of the S, S1, and S2 baseplanes that correspond the saturated glucose complex. The individually fit Kd(T) values were converted into ΔGb(T) and fit to the Gibbs-Helmholtz equation 9 (FIG. 9).
(§2) Analysis of mutant affinity values: Isothermal glucose titrations were extracted from the fluorescent landscape or emission datasets as described above. Monochromatic emission intensities Iλ. (these intensities correspond to a bandpass intensity recorded with a physical filter in the case of the Roche LightCycler) were fit to
(§3) where ^apoIλ2 ^apoIλ2 and ^satIλ2^satIλ2 are the emission intensities of the monochromatic signal at wavelength λ2λ2 of the ligand-free and ligand-bound protein, respectively. Equation 28 illustrates that the ^appKd ^appKd values obtained by fits of 25 to ratiometric signals are wavelength dependent. To obtain wavelength-independent values needed for comparison of mutant proteins, it is necessary to simultaneously fit ^appKd ^appKd to the ratiometric signal and ^trueKd ^trueKd to the two monochromatic signals. For a given isothermal titration, values for ^appKd ^appKd and ^trueKd ^trueKd were obtained using a non-linear fitting algorithm in which these two parameters were simultaneously fit to the three experimental binding isotherms using equations 23 and 27, with the two monochromatic isotherms sharing the same ^trueKd ^trueKd value. Three separate pairs of linear ^apoβ ^apoβ and ^satβ ^satβ baselines were fit in this procedure. TABLES 1-5 record the ^trueKd ^trueKd values at 25° C., obtained by analysis of Roche LightCycler data in 488 nm and 510 nm channels. The uncertainty of the fit (‘error’) was obtained using a boot-strapping technique in which 37% of the data was replicated. In all cases, no binding was recorded if one of ^appKd ^appKd or ^trueKd ^trueKd exceeded 200 mM. The glucose constant of GGBP183 C-acrylodan is 4.21±0.08 mM at 25° C.

A short description of data set [2]: Galactose affinities of the mutants that bind glucose (Roche LightCycler). The class given is binding. The conditions noted are these: trueKd at 25° C., 183C acrylodan conjugates, read-out: Kd^298K(galactose)/mM.
Excerpt: as §2, §3
The galactose affinities for those mutants that bind glucose were also determined.

Data set [3] is described as follows: Thermal denaturation followed by fluorescence ratio, two-state fit. The class given is physicochemical. The conditions noted are these: for Tm/K: thermal stability of the 183C acrylodan conjugate mutant. As to the method:
as §1
Fits of these equation systems to experimental observations such as shown in FIG. 5 require good initial estimates of the parameters. These can then be refined using multi-dimensional conjugate gradient methods. To obtain local fits for protein thermostability in the absence of ligand we solve
This gives excellent fits (FIG. 7).

Data set [4] can be described thus: Isothermal glucose titrations from fluorescent landscapes (Roche LightCycler). Type of data set: binding. This is another data set of the same source.
Data set [5] can be described thus: Glucose titration at room temperature on Nanodrop3300 fluorimeter. The class given is binding. As to the method: (§4) In addition to the Roche LightCycler, which has a limited choice of emission wavelengths, data for selected mutants also was measured at room temperature on a Nanodrop3300 (Thermo Scientific) fluorimeter, which records full emission spectra. Emission intensities at a particular wavelength were extracted by integration of the spectral emission intensities over a 20-nm interval centered on that wavelength.
(§5) Signals S (either single-wavelength emission intensities, LT, or ratios of intensities at two wavelengths, Rig) were fit to ligand-binding isotherms:
(§6) where [L] is the ligand concentration and Kd the dissociation constant corresponding to ^appKd or ^trueKd for fits to R12 (weighted by the relative contributions of ^satβ at the two different wavelengths) and Iλ respectively. For a given isothermal titration, values for ^appKd and ^true Kd were obtained using a non-linear fitting algorithm in which these two parameters were simultaneously fit to the three experimental binding isotherms using equations 29 and 30, with the two monochromatic isotherms sharing the same ^trueKd value. Three separate pairs of ^apoβ and ^satβ were fit in this procedure.

The nature of data set [6]: Fluorescence emission response to ligand binding. More on the design: key to Response Intensity^c: +, increases in response to ligand; —: decreases; 0, no change in the glucose titration; key to Response Shape^b: m, monochromatic; d, dichromatic (i.e. spectral shape changes); 0, no change in the glucose titration. The conditions noted are these: for Response Intensity^c / Response Shape^b: glucose titration, Nanodrop3300, room temperature. The procedure:
as §1, §4

Data set [7] is described as follows: Galactose titration at room temperature on Nanodrop3300 fluorimeter. The class given is binding. The conditions noted are these: ^e noisy data. The procedure:
as §4, §5, §6

Data set [8] is described as follows: Ca2+ binding followed through thermal stability shifts in the absence of glucose. The conditions noted are these: 37° C. An excerpt:
GGBP binds Ca^2+ at a location remote from glucose (FIG. 1). The binding of Ca^2+ was investigated in the absence of glucose (FIG. 12). […] Nevertheless, Ca^2+ binding can be followed through its effect on protein stability (FIG. 13). […] However, at elevated concentrations, this stabilization effect levels off and addition of Ca^2+ becomes destabilizing. […] These effects can be modeled accurately by a fit of the ligand- and temperature-dependent free energy of stability for Ca^2+ (Judge et al. Diabetes Technol. Thera. 2011, 13, 309-317; Layton et al. Biochemistry 2010, 49, 10831-10841). The individual terms are cast in terms of T and [Ca^2+] using equations 4-9. However, rather than fitting fluorescent landscape data directly using 1, Tm and ΔHu, values are extracted at each Ca^2+ concentration using 16 and 17, and fit to the equation system by determining the root of 19 to obtain the calculated Tm value.

[9] abbreviates: trueKd at 25° C., 183C acrylodan conjugates, LightCycler 488 nm and 510 nm channels, ± = bootstrap uncertainty of fit, read-out: Kd^298K(glucose)/mM.
Where [10] appears, read: 37° C., mutations in GGBP183C⋅acrylodan, read-out: glucose Kd values at 37° C.
The mark [11] stands for this setting: apparent, ratiometric signal at the listed wavelength pair, read-out: Affinities (mM)^d Glucose aPPKa.
Where [12] appears, read: from monochromatic signals, read-out: Affinities (mM)^d Glucose trueKa.
The mark [13] stands for this setting: apparent, ratiometric signal at the listed wavelength pair, read-out: Affinities (mM)^d Galactose ^appKd.
The mark [14] stands for this setting: from monochromatic signals, read-out: Affinities (mM)^d Galactose ^trueKd.

Consider “A155H: GGBP 183C acrylodan conjugate with mutation A155H”, for which the Kd in data set [1] (setting [9]) was determined as 13.5 ± 2.5 mM; in data set [2], 17.7 ± 2.1 mM. Besides, the Tm/K in data set [3] is listed as 314 K.

For “A155N: GGBP 183C acrylodan conjugate with mutation A155N”, the Kd was 5.9 ± 1 mM in data set [1] (setting [9]); ~13 mM in data set [4] (setting [10]); 0.14 mM in data set [5] (setting [11]); 0.23 mM in data set [5] (setting [12]); 7.5 ± 1 mM in data set [2]; 4.5 mM in data set [7] (setting [13]). For the same substance, the Kd in data set [7] (setting [14]) was 6.6 mM. The “effect of glucose binding on fluorescence” value in data set [6] (488/580 ratio) is listed as “increases the 488/580 ratio”. The “Response Intensity^c” value in data set [6] is “—”. In addition, in data set [6], the “Response Shape^b” value is reported as “d”. Besides, the Tm/K in data set [3] worked out at 320 K.

As to “D14A: GGBP 183C acrylodan conjugate with mutation D14A”, the Kd in data set [2] amounted to 90 ± 21 mM. In data set [3], the Tm/K is reported as 317 K.

In the case of “E149K: GGBP 183C acrylodan conjugate with mutation E149K”, the Kd was 1.44 ± 0.04 mM in data set [1] (setting [9]); ~0.5 mM in data set [4] (setting [10]); 1.5 mM in data set [5] (setting [11]); 1.2 mM in data set [5] (setting [12]); 40.2 ± 1.3 mM in data set [2]; 34 mM in data set [7] (setting [13]). Besides, in data set [7] (setting [14]), the Kd came to 27 mM. Besides, the “Response Intensity^c” value in data set [6] is recorded as “—”. Further, the “Response Shape^b” value in data set [6] is reported as “d”. The Tm/K in data set [3] turned out to be 321 K.

As to “E149Q: GGBP 183C acrylodan conjugate with mutation E149Q”, the Kd is 0.46 ± 0.01 mM in data set [1] (setting [9]); ~0.5 mM in data set [4] (setting [10]); 0.6 mM in data set [5] (setting [11]); 0.43 mM in data set [5] (setting [12]); 10.8 ± 0.4 mM in data set [2]; 2.3 mM in data set [7] (setting [13]). In addition, the Kd in data set [7] (setting [14]) stood at 2.1 mM. Further, the “Response Intensity^c” value in data set [6] is “—”. For the same substance, in data set [6], the “Response Shape^b” value was “d”. In addition, the Tm/K in data set [3] came out at 322 K.

Regarding “E149S: GGBP 183C acrylodan conjugate with mutation E149S”, the Kd in data set [1] (setting [9]) was 0.34 ± 0.01 mM; in data set [4] (setting [10]), ~0.5 mM; in data set [5] (setting [11]), 0.38 mM; in data set [5] (setting [12]) it was 0.36 mM; in data set [2], 12.7 ± 15 mM; in data set [7] (setting [13]), 6.8 mM. Further, the Kd in data set [7] (setting [14]) worked out at 5.4 mM. In data set [6], the “Response Intensity^c” value was “—”. For the same substance, in data set [6], the “Response Shape^b” value is “d”. In addition, the Tm/K in data set [3] stood at 320 K.

Consider “GGBP183C⋅acrylodan: E. coli glucose-galactose binding protein W183C mutant conjugated to acrylodan; parent sensor”, for which, in data set [1], the “decrease in the affinity for glucose compared to the wild-type protein” value is 10,000 fold. For the same substance, the Kd in data set [1] (25° C., read-out: glucose constant) is 4.21 ± 0.08 mM; in data set [4] (37° C. (310K), fit of equation 18, read-out: Kd, glucose binding isotherm) it was 6.58 ± 0.03 mM; in data set [5] (setting [11]) it was 6 mM; in data set [5] (setting [12]), 4.4 mM; in data set [8] (read-out: Ca^2+ affinity in the native state at a single site), ~0.01 µM; in data set [8] (read-out: calculated Kd for Ca2+, single folded state site), 0.0108 µM. Besides, the Kd in data set [8] (read-out: calculated Kd for Ca2+, single, medium-affinity denatured state) was 370 µM; in data set [8] (read-out: calculated Kd for Ca2+, two, low-affinity denatured states) it was 8800 µM; in data set [7] (setting [13]), 31 mM; in data set [7] (setting [14]) it was 24 mM. For the same substance, the “Response Intensity^c” value in data set [6] is reported as “—”. The “Response Shape^b” value in data set [6] is listed as “d”. Also, the apoTm in data set [3] (apo-protein, two-state fit) is recorded as 322.2 K. Also, in data set [3] (apo-protein, two-state fit), the ΔapoHu worked out at 197.3 kcal/mol.

For the substance “H152N: GGBP 183C acrylodan conjugate with mutation H152N”, the Kd in data set [1] (setting [9]) was 18.8 ± 1.3 mM; in data set [4] (setting [10]), ~14 mM; in data set [5] (setting [11]), 20 mM; in data set [5] (setting [12]), 15 mM; in data set [7] (setting [13]), 21 mM; in data set [7] (setting [14]), 21 mM. Moreover, in data set [6], the “Response Intensity^c” value is recorded as “—”. Moreover, in data set [6], the “Response Shape^b” value was “d”. Besides, the Tm/K in data set [3] was determined as 322 K.

For “H152Q: GGBP 183C acrylodan conjugate with mutation H152Q”, the Kd in data set [1] (setting [9]) was 25.8 ± 2 mM; in data set [4] (setting [10]) it was ~36 mM; in data set [5] (setting [11]) it was 4.6 mM; in data set [5] (setting [12]), 5.1 mM. In data set [6], the “Response Intensity^c” value is listed as “—”. For the same substance, in data set [6], the “Response Shape^b” value is “d”. Further, in data set [3], the Tm/K is recorded as 322 K.
